The values that follow come from patent publication US20200309767A1, “HIGH-THROUGHPUT IMAGING-BASED METHODS FOR PREDICTING CELL-TYPE-SPECIFIC TOXICITY OF XENOBIOTICS WITH DIVERSE CHEMICAL STRUCTURES” (priority 2015, published 2020).

“Also recorded” adds a separate entry of the source. Where a name gives a salt, the structure may show the parent alone. Read-outs that look alike come from different tables or passages of the source.

Series [1] relates to histone H2AX phosphorylated on serine 139 (γH2AX). Format: cell-based, human.
The test system of a further series is primary PTCs. The conditions noted are these: 1000 μg/mL.
Series [2] has as its system human proximal tubular cells (PTCs). To be noted: cited from earlier work.
For another series, the system named is human kidney. The conditions noted are these: cited from earlier work.
A further series deals with liver. To be noted: in vivo; cited from earlier work.
The next series concerns lung. The conditions noted are these: cited from earlier work.
The subject of another series is HK-2 cells. To be noted: previously observed (Wu et al.); cited from earlier work.
[3] abbreviates: known in vivo group, Toxic / Non-toxic.
Setting [4] is: known human kidney toxicity flag 1/0.

As to `N.N.[Cl][Pt][Cl]` [Cisplatin], in series [1], the “change in γH2AX levels” value is reported as “increasing levels”.
Turning to `C[C@@H]1Cc2c(Cl)cc(C(=O)N[C@@H](Cc3ccccc3)C(=O)O)c(O)c2C(=O)O1` [Ochratoxin A], the “change in γH2AX levels” value in series [1] (HPTC-B results) was “increasing levels; also recorded: large increase”. Moreover, in the series with primary PTCs (16 hours), the “cells with increased annexin-V levels” value was ~25%. Besides, the “increase in cell death rates” value with primary PTCs (within the measured period (16 hours)) was “very small or no increase”. For the same compound, the “PTC Toxicity” value in series [2] (setting [3]) is “Toxic”. Besides, in series [2] (known toxicity flag 1/0), the PTC-toxic is given as 1. In addition, the Nephrotoxic in the series with human kidney (setting [4]) is listed as 1. In addition, in the series on liver, the Hepatotoxic is listed as 0.
Take `CCC[C@@H]1C[C@@H](C(=O)N[C@@H]([C@H]2O[C@H](SC)[C@H](O)[C@@H](O)[C@H]2O)[C@@H](C)O)N(C)C1` [Lincomycin]: the “change in γH2AX levels” value in series [1] is “small or no change”. Besides, in series [2] (human, in vivo), the “PTC Toxicity” value is given as “Non-toxic” and the PTC-toxic is 0. In addition, the Nephrotoxic in the series on human kidney (in vivo) is listed as 1. In addition, the Hepatotoxic in the series with liver was 0.
Turning to `NC(=O)c1ncn([C@@H]2O[C@H](CO)[C@@H](O)[C@H]2O)n1` [Ribavirin], in series [1], the “change in γH2AX levels” value is “small or no change”. In series [2] (human, in vivo), the “PTC Toxicity” value is listed as “Non-toxic” and the PTC-toxic is listed as 0. Further, the Nephrotoxic in the series with human kidney (in vivo) was 0. In addition, the Hepatotoxic with liver is listed as 0.
For the compound `[Cl-].[Li+]` [Lithium chloride], the “change in γH2AX levels” value in series [1] is “small or no change”. In series [2] (human, in vivo), the “PTC Toxicity” value is recorded as “Non-toxic” and the PTC-toxic is listed as 0. In addition, the Nephrotoxic with human kidney (in vivo) is reported as 1. In the series on liver, the Hepatotoxic was 0. Also, the Pulmonotoxic with lung (human, in vivo) is given as 0.
Consider `O=c1[nH]cc(F)c(=O)[nH]1` [5-Fluorouracil], for which, in series [2] (human, in vivo), the “PTC Toxicity” value is reported as “Toxic” and the PTC-toxic was 1. The Nephrotoxic in the series with human kidney (in vivo) is 1. In addition, the Hepatotoxic in the series on liver was 1. Further, the apoptotic responses entry in the series with HK-2 cells is given as “lack of apoptotic responses”.
On to Gentamicin, for which, in series [2] (human, in vivo), the “PTC Toxicity” value was “Toxic” and the PTC-toxic is 1. Besides, in the series with human kidney (in vivo), the Nephrotoxic is 1. Besides, the Hepatotoxic in the series with liver is on record as 0. Moreover, the apoptotic responses entry in the series with HK-2 cells was “lack of apoptotic responses”.
Take `C[n+]1ccc(-c2cc[n+](C)cc2)cc1` [Paraquat]: in series [2] (human, in vivo), the “PTC Toxicity” value is recorded as “Toxic” and the PTC-toxic is listed as 1. In addition, in the series on human kidney (in vivo), the Nephrotoxic is 1. Moreover, in the series on liver, the Hepatotoxic is on record as 1. For the same compound, in the series with lung (human, in vivo), the Pulmonotoxic is listed as 1.
As for `C[C@H](Cn1cnc2c(N)ncnc21)OCP(=O)(O)O` [Tenofovir], in series [2] (human, in vivo), the “PTC Toxicity” value is “Toxic” and the PTC-toxic is reported as 1. Also, the Nephrotoxic in the series with human kidney (in vivo) is listed as 1. In addition, the Hepatotoxic with liver is reported as 0. Moreover, the Pulmonotoxic in the series on lung (human, in vivo) is reported as 0.
As for `OCCO` [Ethylene glycol], in series [2] (human, in vivo), the “PTC Toxicity” value is “Non-toxic” and the PTC-toxic is 0. Also, in the series with human kidney (in vivo), the Nephrotoxic was 1. In addition, the Hepatotoxic in the series on liver is reported as 0. Moreover, the Pulmonotoxic with lung (human, in vivo) is reported as 0.
Take `CCC[C@@H]1C[C@@H](C(=O)N[C@@H]([C@H]2O[C@H](SC)[C@H](O)[C@@H](O)[C@H]2O)[C@@H](C)O)N(C)C1` [Lincomycin hydrochloride]: in the series on lung (human, in vivo), the Pulmonotoxic is on record as 0.
Turning to `OCCOCCOCCO` [Triethylene glycol], the Pulmonotoxic in the series with lung (human, in vivo) was 0.
For `CC(O)(CS(=O)(=O)c1ccc(F)cc1)C(=O)Nc1ccc(C#N)c(C(F)(F)F)c1` (stereo not shown) [Bicalutamide], the Pulmonotoxic with lung (human, in vivo) is on record as 0.
On to `[Cd+2].[Cl-].[Cl-]` [Cadmium(II) chloride], for which the “PTC Toxicity” value in series [2] (setting [3]) is given as “Toxic”. In addition, the PTC-toxic in series [2] (known toxicity flag 1/0) is 1. In addition, in the series on human kidney (setting [4]), the Nephrotoxic is on record as 1. For the same compound, in the series with liver, the Hepatotoxic was 1. Besides, the Pulmonotoxic in the series with lung (known toxicity flag 1/0) is given as 1.
Turning to `Cc1cc(C(C)(C)C)c(O)c(C(C)(C)C)c1` [Butylated hydroxytoluene], the Pulmonotoxic in the series with lung (human, in vivo) is 0.
As to `CN[C@H](CC(C)C)C(=O)N[C@H]1C(=O)N[C@@H](CC(N)=O)C(=O)N[C@H]2C(=O)N[C@H]3C(=O)N[C@H](C(=O)N[C@H](C(=O)O)c4cc(O)cc(O)c4-c4cc3ccc4O)[C@H](O)c3ccc(c(Cl)c3)Oc3cc2cc(c3O[C@@H]2O[C@H](CO)[C@@H](O)[C@H](O)[C@H]2O[C@H]2C[C@](C)(N)[C@H](O)[C@H](C)O2)Oc2ccc(cc2Cl)[C@H]1O` [Vancomycin hydrochloride], the Pulmonotoxic with lung (human, in vivo) is reported as 0.
As to `CC(=O)C(C)=O` [Diacetyl], the Pulmonotoxic in the series with lung (human, in vivo) was 1.
Consider `OC[C@@H](O)[C@@H](O)[C@H](O)[C@@H](O)CO` [D-sorbitol], for which the Pulmonotoxic in the series on lung (human, in vivo) is given as 0.
